Data reported in PubChem BioAssay (NCI).
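Grown in 96-well plates, cells were treated for 48 hours with each compound at five concentrations. Insufficient inhibition: endpoint recorded as highest concentration tested. Definition used: TGI = concentration required for complete inhibition of growth.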 Where a SMILES comes first, the peptide text is derived from it. Bridges are numbered along the chain shown (N, C = ends). [ ]: non-standard residue; d: D form. The star is where a group is joined. ξ: configuration not given here. PhAc = O=C(Cc1ccccc1)*; ξP = O=C(O)C1CCCN1

Key:
Assay in all cases: inhibition of tumour cell growth, NCI panel, 48 h
786-0 renal = tested on: 786-0 renal
A498 renal = tested on: A498 renal
A549 NSCLC = tested on: A549 NSCLC
ACHN renal = tested on: ACHN renal
CAKI-1 renal = tested on: CAKI-1 renal
CCRF-CEM leukemia = tested on: CCRF-CEM leukemia
COLO 205 colon = tested on: COLO 205 colon
DU-145 prostate = tested on: DU-145 prostate
EKVX NSCLC = tested on: EKVX NSCLC
HCC-2998 colon = tested on: HCC-2998 colon
HCT-116 colon = tested on: HCT-116 colon
HCT-15 colon = tested on: HCT-15 colon
HL-60(TB) leukemia = tested on: HL-60(TB) leukemia
HOP-62 NSCLC = tested on: HOP-62 NSCLC
HOP-92 NSCLC = tested on: HOP-92 NSCLC
HS 578T breast = tested on: HS 578T breast
HT29 colon = tested on: HT29 colon
IGROV1 ovarian = tested on: IGROV1 ovarian
KM12 colon = tested on: KM12 colon
LOX IMVI melanoma = tested on: LOX IMVI melanoma
M14 melanoma = tested on: M14 melanoma
MALME-3M melanoma = tested on: MALME-3M melanoma
MCF7 breast = tested on: MCF7 breast
MDA-MB-231 breast = tested on: MDA-MB-231 breast
MDA-MB-435 = tested on: MDA-MB-435
MDA-N = tested on: MDA-N
MOLT-4 leukemia = tested on: MOLT-4 leukemia
NCI-H226 lung = tested on: NCI-H226 lung
NCI-H23 lung = tested on: NCI-H23 lung
NCI-H460 lung = tested on: NCI-H460 lung
NCI/ADR-RES ovarian = tested on: NCI/ADR-RES ovarian
OVCAR-3 ovarian = tested on: OVCAR-3 ovarian
OVCAR-4 ovarian = tested on: OVCAR-4 ovarian
OVCAR-5 ovarian = tested on: OVCAR-5 ovarian
OVCAR-8 ovarian = tested on: OVCAR-8 ovarian
PC-3 prostate = tested on: PC-3 prostate
RXF 393 renal = tested on: RXF 393 renal
SF-268 CNS = tested on: SF-268 CNS
SF-295 CNS = tested on: SF-295 CNS
SF-539 CNS = tested on: SF-539 CNS
SK-MEL-2 melanoma = tested on: SK-MEL-2 melanoma
SK-MEL-28 melanoma = tested on: SK-MEL-28 melanoma
SK-MEL-5 melanoma = tested on: SK-MEL-5 melanoma
SK-OV-3 ovarian = tested on: SK-OV-3 ovarian
SN12C renal = tested on: SN12C renal
SNB-19 CNS = tested on: SNB-19 CNS
SNB-75 CNS = tested on: SNB-75 CNS
SR leukemia = tested on: SR leukemia
SW-620 colon = tested on: SW-620 colon
T-47D breast = tested on: T-47D breast
TK-10 renal = tested on: TK-10 renal
UACC-257 melanoma = tested on: UACC-257 melanoma
UACC-62 melanoma = tested on: UACC-62 melanoma
BT-549 breast = tested on: BT-549 breast
U251 CNS = tested on: U251 CNS
UO-31 renal = tested on: UO-31 renal

Compound: O=C(Cc1ccccc1)N[C@@H]1COC(=O)C2CCCN2C(=O)[C@@H]2CCCN2C1=O (some centres undefined) (PhAc-[dS]-Pro-[ξP]; ester 1-C)
- TGI (786-0 renal): > 100 µM
- TGI (A498 renal): > 100 µM
- TGI (A549 NSCLC): > 100 µM
- TGI (ACHN renal): > 100 µM
- TGI (CAKI-1 renal): > 100 µM
- TGI (CCRF-CEM leukemia): > 100 µM
- TGI (COLO 205 colon): > 100 µM
- TGI (DU-145 prostate): > 100 µM
- TGI (EKVX NSCLC): > 100 µM
- TGI (HCC-2998 colon): > 100 µM
- TGI (HCT-116 colon): > 100 µM
- TGI (HCT-15 colon): > 100 µM
- TGI (HL-60(TB) leukemia): > 100 µM
- TGI (HOP-62 NSCLC): > 100 µM
- TGI (HOP-92 NSCLC): > 100 µM
- TGI (HS 578T breast): > 100 µM
- TGI (HT29 colon): > 100 µM
- TGI (IGROV1 ovarian): > 100 µM
- TGI (KM12 colon): > 100 µM
- TGI (LOX IMVI melanoma): > 100 µM
- TGI (M14 melanoma): > 100 µM
- TGI (MALME-3M melanoma): > 100 µM
- TGI (MCF7 breast): > 100 µM
- TGI (MDA-MB-231 breast): > 100 µM
- TGI (MDA-MB-435): > 100 µM
- TGI (MDA-N): > 100 µM
- TGI (MOLT-4 leukemia): > 100 µM
- TGI (NCI-H226 lung): > 100 µM
- TGI (NCI-H23 lung): > 100 µM
- TGI (NCI-H460 lung): > 100 µM
- TGI (NCI/ADR-RES ovarian): > 100 µM
- TGI (OVCAR-3 ovarian): > 100 µM
- TGI (OVCAR-4 ovarian): > 100 µM
- TGI (OVCAR-5 ovarian): > 100 µM
- TGI (OVCAR-8 ovarian): > 100 µM
- TGI (PC-3 prostate): > 100 µM
- TGI (RXF 393 renal): > 100 µM
- TGI (SF-268 CNS): > 100 µM
- TGI (SF-295 CNS): > 100 µM
- TGI (SF-539 CNS): > 100 µM
- TGI (SK-MEL-2 melanoma): > 100 µM
- TGI (SK-MEL-28 melanoma): > 100 µM
- TGI (SK-MEL-5 melanoma): > 100 µM
- TGI (SK-OV-3 ovarian): > 100 µM
- TGI (SN12C renal): > 100 µM
- TGI (SNB-19 CNS): > 100 µM
- TGI (SNB-75 CNS): 4.79 µM
- TGI (SR leukemia): > 100 µM
- TGI (SW-620 colon): > 100 µM
- TGI (T-47D breast): > 100 µM
- TGI (TK-10 renal): > 100 µM
- TGI (UACC-257 melanoma): > 100 µM
- TGI (UACC-62 melanoma): > 100 µM

Compound: CCOP(=O)(OCC)/C(=C\n1c(=S)[nH]c2cc(C)ccc21)C(=O)OC
- TGI (786-0 renal): > 100 µM
- TGI (A498 renal): > 100 µM
- TGI (A549 NSCLC): > 100 µM
- TGI (ACHN renal): > 100 µM
- TGI (BT-549 breast): > 100 µM
- TGI (CAKI-1 renal): > 100 µM
- TGI (COLO 205 colon): > 100 µM
- TGI (DU-145 prostate): > 100 µM
- TGI (EKVX NSCLC): > 100 µM
- TGI (HCC-2998 colon): > 100 µM
- TGI (HCT-116 colon): > 100 µM
- TGI (HCT-15 colon): > 100 µM
- TGI (HL-60(TB) leukemia): > 100 µM
- TGI (HOP-62 NSCLC): > 100 µM
- TGI (HOP-92 NSCLC): > 100 µM
- TGI (HT29 colon): > 100 µM
- TGI (IGROV1 ovarian): > 100 µM
- TGI (KM12 colon): > 100 µM
- TGI (LOX IMVI melanoma): > 100 µM
- TGI (M14 melanoma): > 100 µM
- TGI (MCF7 breast): > 100 µM
- TGI (MDA-MB-231 breast): > 100 µM
- TGI (MDA-MB-435): > 100 µM
- TGI (MDA-N): > 100 µM
- TGI (MOLT-4 leukemia): > 100 µM
- TGI (NCI-H226 lung): > 100 µM
- TGI (NCI-H23 lung): > 100 µM
- TGI (NCI-H460 lung): > 100 µM
- TGI (NCI/ADR-RES ovarian): > 100 µM
- TGI (OVCAR-3 ovarian): > 100 µM
- TGI (OVCAR-4 ovarian): > 100 µM
- TGI (OVCAR-5 ovarian): > 100 µM
- TGI (OVCAR-8 ovarian): > 100 µM
- TGI (RXF 393 renal): > 100 µM
- TGI (SF-268 CNS): > 100 µM
- TGI (SF-295 CNS): > 100 µM
- TGI (SF-539 CNS): > 100 µM
- TGI (SK-MEL-2 melanoma): > 100 µM
- TGI (SK-MEL-28 melanoma): > 100 µM
- TGI (SK-MEL-5 melanoma): > 100 µM
- TGI (SK-OV-3 ovarian): > 100 µM
- TGI (SN12C renal): > 100 µM
- TGI (SNB-19 CNS): > 100 µM
- TGI (SNB-75 CNS): > 100 µM
- TGI (SW-620 colon): > 100 µM
- TGI (T-47D breast): > 100 µM
- TGI (TK-10 renal): > 100 µM
- TGI (U251 CNS): > 100 µM
- TGI (UACC-257 melanoma): > 100 µM
- TGI (UACC-62 melanoma): > 100 µM
- TGI (UO-31 renal): > 100 µM
